Where no end group is shown, it is not given here.

One test deals with HLA class I molecule. Kind of test: HLA class I peptide binding affinity assay (inhibition of 125I-radiolabeled probe peptide binding to purified HLA). On the set-up: species or system human. As to conditions: Allele A11.01; read-out: Observed Affinity (IC50; (nM)). How it is done: Epstein-Barr virus (EBV)-transformed homozygous cell lines, fibroblasts, CIR, or 721.22 transfectants are used as sources of HLA class I molecules. […] HLA molecules are purified from lysates by affinity chromatography. The lysates are passed over a column of Sepharose CL-4B beads coupled to an appropriate antibody. […] A 1/25 volume of 2.0 M Tris, pH 6.8, is added to the eluate to reduce the pH to […]. Eluates are then concentrated by centrifugation in Centriprep 30 concentrators (Amicon, Beverly, MA). Protein content is evaluated by a BCA protein assay (Pierce Chemical Co., Rockford, IL) and confirmed by SDS-PAGE.
Following incubation, MHC-peptide complexes are separated from free peptide by gel filtration on 7.8 mm×15 cm TSK200 columns (TosoHaas 16215, Montgomeryville, PA). Because the large size of the radiolabeled peptide used for the DRB1*1501 (DR2w2(31) assay makes separation of bound from unbound peaks more difficult under these conditions, all DRB1*1501 (DR2w2(31) assays were performed using a 7.8 mm×30 cm TSK2000 column eluted at 0.6 mLs/min. The eluate from the TSK columns is passed through a Beckman 170 radioisotope detector, and radioactivity is plotted and integrated using a Hewlett-Packard 3396A integrator, and the fraction of peptide bound is determined.
Radiolabeled peptides are iodinated using the chloramine-T method. […] All subsequent inhibition and direct binding assays are performed using these HLA concentrations.
Since under these conditions [label]<[HLA] and IC50≥[HLA], the measured IC50 values are reasonable approximations of the true KD values. […] For database purposes, and inter-experiment comparisons, relative binding values are compiled. These values can subsequently be converted back into IC50 nM values by dividing the IC50 nM of the positive controls for inhibition by the relative binding of the peptide of interest.
HLA binding assays were used to evaluate either the affinity of interaction of a given epitope with a selected HLA molecule or the stability.
The measurements are plotted against the predicted affinity in FIG. 1.
In the case of AMTTSSSQK, the IC50 stood at 162 nM. The same measure, in the same setting: next, KISNWSLKK: 9.8 nM; SAMTTSSSQK: 15.8 nM; SLKKVPALK: 129 nM.

The test is the same for the next values; noted with them: allele A01.01; read-out: Observed Affinity (IC50; (nM)).
Regarding `CC[C@H](C)[C@H](NC(=O)[C@H](CC(C)C)NC(=O)[C@H](CCC(N)=O)NC(=O)[C@@H](NC(=O)[C@@H](NC(=O)[C@H](CO)NC(=O)[C@@H](NC(=O)[C@H](CC(C)C)NC(=O)[C@@H](N)CS)[C@@H](C)O)[C@@H](C)O)C(C)C)C(=O)N[C@@H](CCSC)C(=O)O`, the IC50 was 11000 nM. Still for that read-out and setting: the result for `CC[C@H](C)[C@H](N)C(=O)N[C@@H](CC(C)C)C(=O)N[C@@H](CC(=O)O)C(=O)N[C@H](C(=O)N[C@@H](C)C(=O)NCC(=O)N[C@@H](CCCCN)C(=O)N[C@@H](CCC(=O)O)C(=O)N[C@@H](CCC(=O)O)C(=O)N[C@@H](Cc1ccc(O)cc1)C(=O)O)[C@@H](C)O` reads 14.3 nM; that for `CSCC[C@H](N)C(=O)N[C@@H](C)C(=O)N[C@@H](CC(N)=O)C(=O)NCC(=O)N[C@@H](CO)C(=O)N[C@@H](CC(C)C)C(=O)N[C@@H](CC(C)C)C(=O)N[C@@H](CC(N)=O)C(=O)N[C@@H](Cc1ccc(O)cc1)C(=O)O`, 439 nM. On the same count and under the same terms, the result for CLSFLSSWDY reads 987 nM; that for GSNEVTTRY, 606 nM. In the case of ILDTAGHEEY, the 50% inhibitory concentration (IC50) came out at 64.2 nM. Regarding ILDTAGLEEY, the IC50 is 8.6 nM. As to ILDTAGREEY, the IC50 stood at 7 nM. Regarding LSFLSSWDY, the IC50 is 52.9 nM.

Take LTSTVQLIM: the IC50 was 2890 nM. For the compound MSDTTYKIY, the IC50 was found to be 10.2 nM. For the compound TGSNEVTTRY, the IC50 turned out to be 15500 nM. On the same count and under the same terms, next, TTNAFSGEY: 4.4 nM; VMSDTTYKIY: 376 nM; YMANGSLLNY: 13.2 nM. Still for that read-out and setting: next, YTTNAFSGEY: 10.5 nM.

Staying with this test, now noted: allele A02.01; read-out: Observed Affinity (IC50; (nM)).
Consider `CC[C@H](C)[C@H](NC(=O)[C@H](CC(C)C)NC(=O)[C@H](CCC(N)=O)NC(=O)[C@@H](NC(=O)[C@@H](NC(=O)[C@H](CO)NC(=O)[C@@H](NC(=O)[C@H](CC(C)C)NC(=O)[C@@H](N)CS)[C@@H](C)O)[C@@H](C)O)C(C)C)C(=O)N[C@@H](CCSC)C(=O)O`, for which the IC50 turned out to be 716 nM.

On to `CC(C)C[C@H](NC(=O)[C@H](CO)NC(=O)[C@H](CCCCN)NC(=O)[C@H](CC(C)C)NC(=O)[C@@H](NC(=O)[C@H](CO)NC(=O)[C@@H]1CCCN1C(=O)[C@H](CC(C)C)NC(=O)[C@@H](N)Cc1ccccc1)[C@@H](C)O)C(=O)O`, for which the IC50 is 21 nM.

Consider `CC[C@H](C)[C@H](N)C(=O)N[C@H](C(=O)N[C@H](C(=O)N[C@@H](CCC(=O)O)C(=O)N[C@@H](Cc1ccccc1)C(=O)N[C@@H](CCSC)C(=O)N[C@H](C(=O)N[C@@H](Cc1ccc(O)cc1)C(=O)NCC(=O)N[C@@H](CC(N)=O)C(=O)O)[C@@H](C)O)[C@@H](C)CC)[C@@H](C)CC`, for which the IC50 came out at 1550 nM.

As to `CC[C@H](C)[C@H](NC(=O)[C@@H]1CCCN1C(=O)[C@H](CC(C)C)NC(=O)[C@@H](N)CC(C)C)C(=O)N1CCC[C@H]1C(=O)N1CCC[C@H]1C(=O)N[C@@H](CC(C)C)C(=O)N[C@@H](CO)C(=O)N1CCC[C@H]1C(=O)N[C@@H](CO)C(=O)O`, the IC50 was determined as 449 nM.

In the case of AFSGEYIPTV, the IC50 worked out at 781 nM. Still for that read-out and setting: next, AIQPVLWTT: 8.1 nM; ALAPTLTHM: 59 nM. As for ALAPTLTHML, the IC50 worked out at 39 nM. Regarding ALEEKKGNYV, the IC50 came to 141 nM.

As for ALFFFFFET, the IC50 is 471 nM. As to ALMSAMTTS, the IC50 was 139 nM.

In the case of ALQPLQPHA, the IC50 is 604 nM. On to ALWECSLPQA, for which the IC50 is 9 nM. Consider AQAGVQWRSL, for which the IC50 amounted to 670 nM. On the same count and under the same terms, next, FALCGFWQI: 0.4 nM. In the case of FELLPIPPL, the IC50 came out at 553 nM. On the same count and under the same terms, next, FELLSTPPL: 225 nM; FFFETKSCSV: 61.2 nM. Take FFFSVIFST: the IC50 was 4560 nM. Consider FILMELMAGG, for which the half-maximal inhibitory concentration (IC50) was 1580 nM. Consider FKLFSCLSFL, for which the IC50 worked out at 663 nM. Same read-out and setting: the result for FLLALWECS reads 93.2 nM; that for FLSSWDYRRM, 324 nM. As for FQNGKMALS [FQNGKMALS], the IC50 was determined as 3280 nM. Still for that read-out and setting: the result for FVMSDTTYKI reads 62.4 nM; that for GLSISCTTL, 114 nM; that for GMNQRPILT, 3030 nM. The same measure, in the same setting: the result for GMNWRPILT reads 1130 nM; that for HMNIANLLGA, 430 nM. In the case of IANLLGACTI, the IC50 came out at 6420 nM. Turning to IIEFMTYGNL, the IC50 turned out to be 9700 nM. Consider IIEYCFYGDL, for which the IC50 turned out to be 1090 nM. The same measure, in the same setting: next, IIIEFMTYG: 779 nM. Same read-out and setting: next, ILIRKAMTV: 19.5 nM; ILLPEDTPPL: 6.7 nM; ILMELMAGGD: 3450 nM. Same read-out and setting: next, IMSLWGLVS: 7320 nM; ITAFFFCWI: 7490 nM.

Regarding ITAFFLLDI, the IC50 is 78.7 nM.

Turning to IVSRTLLLV, the IC50 amounted to 12.7 nM. Consider KITEQEKDFL, for which the IC50 was determined as 1400 nM.

Consider KKLMLLRLNL, for which the half-inhibitory concentration (IC50) came to 289 nM. With KLFSCLSFLS, the half-inhibitory concentration (IC50) amounted to 0.6 nM. For the compound KQWSSVTSL, the IC50 worked out at 26.5 nM. Regarding KSLVRLSSCV, the IC50 was 280 nM. On the same count and under the same terms, next, LATEKSRWS: 61000 nM. The same measure, in the same setting: the result for LATEKSRWSG reads 23300 nM.

Regarding LIMQLMPFG, the IC50 turned out to be 3510 nM. As to LIVSRTLLLV, the IC50 turned out to be 10900 nM. On to LLDILDTAGL, for which the IC50 amounted to 716 nM.

For the compound LLGRNSFEVC, the IC50 amounted to 2080 nM. As for LLPEDTPPL, the IC50 amounted to 2.8 nM.

For the compound LLQVTQTSFA, the IC50 worked out at 677 nM. Turning to LLSTPPLSPS, the IC50 is 1770 nM. Same read-out and setting: the result for LLYITAFFLL reads 323 nM; that for LQEFDVQEAL [LQEFDVQEAL], 50300 nM; that for LQVTQTSFAL [LQVTQTSFAL], 718 nM. Consider LVRLSSCVPV, for which the IC50 was determined as 1240 nM. Same read-out and setting: next, LVVVGADGV: 1190 nM; MLTGPPARV: 10.6 nM. Still for that read-out and setting: next, MSVCFFFFSV: 1710 nM; NSFEVHVCA: 503 nM. With NVVPLCDLL, the IC50 was 3030 nM.

With NVVPLCDLLL, the half-maximal inhibitory concentration (IC50) is 1370 nM. Same read-out and setting: the result for NVVPLNDLL reads 2900 nM; that for NVVPLNDLLL, 4190 nM; that for NVVPLSDLL, 916 nM. NVVPLSDLLL: the IC50 is 741 nM.

NVVPLYGLL: the IC50 amounted to 10500 nM. The same measure, in the same setting: next, PLNDLLLEML: 12000 nM; PLSDLLLEML: 6470 nM. For the compound PLYGLLLEML, the IC50 was 797 nM.

For QLIMQLMPFG, the IC50 stood at 5930 nM.

In the case of QQQSDLQPPA, the IC50 worked out at 646 nM. For QQSDLQPPA, the half-inhibitory concentration (IC50) is 70 nM. As for QTGVMICAYL, the IC50 amounted to 9760 nM. Still for that read-out and setting: the result for RLSSCVPVAL [RLSSCVPVAL] reads 54.2 nM; that for RLWHLLLQV, 1.3 nM; that for RLWHLLLQVT, 50.9 nM. Still for that read-out and setting: the result for SLVRLSSCV reads 29.9 nM. For the compound SLYIVGFYG, the IC50 came out at 1060 nM. With STVQLIMQL, the IC50 came to 8540 nM. For the compound TIGGPTLVII, the IC50 was determined as 10700 nM. Still for that read-out and setting: next, TLQRSSLWCL: 118 nM; TQISSATEYL: 2640 nM; VMSDTTYKI: 19.6 nM. Same read-out and setting: the result for VQWRSLGSL reads 4730 nM; that for VRLSSCVPVA, 1210 nM.

As for VVPLCDLLL, the IC50 stood at 1200 nM. Same read-out and setting: the result for VVPLSDLLL reads 2550 nM; that for YIIIEFMTYG, 186 nM. The same measure, in the same setting: the result for YITAFFLLDI reads 64.5 nM; that for YLGNHMNIAN, 1340 nM; that for YLTKWPKFFL, 42.9 nM. With YMANGSLLN, the IC50 was found to be 4440 nM.

The same test, now with this note: allele B08.01; read-out: Observed Affinity (IC50; (nM)).
Regarding `CC(C)C[C@H](NC(=O)[C@H](CO)NC(=O)[C@H](CCCCN)NC(=O)[C@H](CC(C)C)NC(=O)[C@@H](NC(=O)[C@H](CO)NC(=O)[C@@H]1CCCN1C(=O)[C@H](CC(C)C)NC(=O)[C@@H](N)Cc1ccccc1)[C@@H](C)O)C(=O)O`, the IC50 came out at 1970 nM. Still for that read-out and setting: next, FELLSTPPL: 3180 nM; LATEKSRWS: 37000 nM; LATEKSRWSG: 46600 nM. On to LKKLRSPL, for which the IC50 worked out at 0.6 nM.

Another test deals with HLA Class I molecules. Nature of the test: HLA class I binding stability assay (pMHC-I complex dissociation, 125I-labeled β2m, scintillation counts). On the set-up: species or system human. As to conditions: allele A02.01; 37° C.
Method: These reactions are carried out in streptavidin coated microplates to bind th biotinylated MHC-I heavy chains to the surface and allow measurement of radiolabeled light chain to monitor complex formation. Dissociation is initiated by addition of higher concentations of unlabled light-chain and incubation at 37° C. Stability is defined as the length of time in hours it takes for half of the complexes to dissociate, as measured by scintillation counts
As for `CSCC[C@H](N)C(=O)N[C@@H](C)C(=O)N[C@@H](CC(C)C)C(=O)N[C@@H](CC(N)=O)C(=O)N[C@@H](CO)C(=O)N[C@@H](CCC(=O)O)C(=O)N[C@@H](C)C(=O)N[C@@H](CC(C)C)C(=O)N[C@@H](CO)C(=O)N[C@H](C(=O)O)C(C)C`, the “Stability (T1/2 (h))” value is given as 0.7 h. As to `CC(C)C[C@H](NC(=O)[C@@H](N)CCCNC(=N)N)C(=O)N[C@@H](CO)C(=O)N[C@@H](CO)C(=O)N[C@@H](CS)C(=O)N[C@H](C(=O)N1CCC[C@H]1C(=O)N[C@H](C(=O)N[C@@H](C)C(=O)O)C(C)C)C(C)C`, the “Stability (T1/2 (h))” value was determined as 18.7 h.

One may read the IC50 as the concentration that gives 50% inhibition.

Values taken from patent publication US20230414735A1, “NEOANTIGENS AND METHODS OF THEIR USE” (priority 2016, published 2023).
